From the NIST ThermoML archive (doi:10.1016/j.fluid.2015.04.017)
Numbers after ± are expanded uncertainties.

Columns and labels:
[1] = refractive index (Na D-line) (dimensionless); conditions: 298.15 K; 101.33 kPa; Liquid; Standard Abbe refractometry
[2] = 298.15 K, 101.33 kPa, Liquid; for viscosity: Concentric cylinders viscometry; for mass density: Vibrating tube method
[3] = xn = mol fraction of the nth substance listed; conditions: 101 kPa, Liquid, x2 = 0; for viscosity: Concentric cylinders viscometry; for mass density: Vibrating tube method
[4] = refractive index (Na D-line) (dimensionless); xn = mol fraction of the nth substance listed; conditions: 101 kPa, Liquid, Standard Abbe refractometry, x2 = 0

CN1CCCC1=O [N-methylpyrrolidone]
Conditions	mass density [kg/m3]	refractive index	viscosity [mPa·s]
[1]	–	1.4687 ± 0.00033	–
[2]	1030.45 ± 0.099	–	1.757 ± 0.017

CCOC(=O)C(C)O (racemic) [DL-ethyl lactate]
Conditions	mass density [kg/m3]	refractive index	viscosity [mPa·s]
[1]	–	1.41076 ± 0.00037	–
[2]	1028.39 ± 0.25	–	2.39 ± 0.025

CCC(C)=O [butanone]
Conditions	mass density [kg/m3]	refractive index	viscosity [mPa·s]
[1]	–	1.37662 ± 0.00033	–
[2]	800.872 ± 0.14	–	0.3888 ± 0.0057

CN1CCCC1=O [N-methylpyrrolidone] + CCOC(=O)C(C)O
Conditions	mass density, [3] [kg/m3]	refractive index, [4]	viscosity, [3] [mPa·s]
288.15 K	1039.4 ± 0.1	1.47305 ± 0.00033	2.088 ± 0.02
293.15 K	1034.92 ± 0.099	1.47088 ± 0.00033	1.91 ± 0.018
298.15 K	1030.45 ± 0.096	1.4687 ± 0.00033	1.757 ± 0.017
303.15 K	1025.99 ± 0.094	1.46651 ± 0.00033	1.623 ± 0.016
308.15 K	1021.52 ± 0.092	1.46434 ± 0.00033	1.505 ± 0.015
313.15 K	1017.07 ± 0.09	1.46211 ± 0.00033	1.401 ± 0.014
318.15 K	1012.61 ± 0.088	1.45998 ± 0.00033	1.307 ± 0.013
323.15 K	1008.16 ± 0.086	1.45783 ± 0.00033	1.231 ± 0.013

CCC(C)=O [butanone] + CCOC(=O)C(C)O
Conditions	mass density, [3] [kg/m3]	refractive index, [4]	viscosity, [3] [mPa·s]
288.15 K	811.324 ± 0.14	1.3817 ± 0.00033	0.4217 ± 0.0059
293.15 K	806.111 ± 0.14	1.37918 ± 0.00033	0.4054 ± 0.0058
298.15 K	800.872 ± 0.14	1.37662 ± 0.00033	0.3888 ± 0.0057
303.15 K	795.603 ± 0.14	1.37402 ± 0.00033	0.3712 ± 0.0055
308.15 K	790.3 ± 0.14	1.37138 ± 0.00033	0.3542 ± 0.0054
313.15 K	784.965 ± 0.15	1.36871 ± 0.00033	0.3368 ± 0.0053
318.15 K	779.589 ± 0.15	1.36615 ± 0.00033	0.3194 ± 0.0052
323.15 K	774.175 ± 0.15	1.36338 ± 0.00033	0.3036 ± 0.0051

Cc1ccccc1 [toluene]
Conditions	mass density [kg/m3]	refractive index	viscosity [mPa·s]
[1]	–	1.49299 ± 0.00033	–
[2]	862.206 ± 0.12	–	0.567 ± 0.007

Cc1ccccc1 [toluene] + CCOC(=O)C(C)O
Conditions	mass density, [3] [kg/m3]	refractive index, [4]	viscosity, [3] [mPa·s]
288.15 K	871.501 ± 0.12	1.49883 ± 0.00033	0.6251 ± 0.0075
293.15 K	866.859 ± 0.12	1.49592 ± 0.00033	0.5961 ± 0.0072
298.15 K	862.206 ± 0.12	1.49299 ± 0.00033	0.567 ± 0.007
303.15 K	857.541 ± 0.12	1.49012 ± 0.00033	0.54 ± 0.0068
308.15 K	852.861 ± 0.13	1.48731 ± 0.00033	0.5128 ± 0.0066
313.15 K	848.164 ± 0.13	1.48454 ± 0.00033	0.4866 ± 0.0064
318.15 K	843.444 ± 0.13	1.48195 ± 0.00033	0.462 ± 0.0062
323.15 K	838.707 ± 0.13	1.47928 ± 0.00033	0.4435 ± 0.0061
